Experiments:
Format in all cases: in vivo
Glycine max = test: Test Example 4: effect on crop by application to foliage (diluvial soil, plastic box); settings: for effect on crop, c (Glycine max): application to foliage, 320 g/ha
Description: (§1) 5 Herbicidal ratio of 90% or more (almost completely withered) 4 Herbicidal ratio of 70% or more and less than 90% 3 Herbicidal ratio of 40% or more and less than 70% 2 Herbicidal ratio of 20% or more and less than 40% 1 Herbicidal ratio of 5% or more and less than 20% 0 Herbicidal ratio of 5% or less (almost no effect) [Test Example 4] Herbicidal Effect Test by Application to Foliage Sterilized diluvial soil was placed in a plastic box having a length of 21 cm, a width of 13 cm, and a depth of 7 cm. Each of the seeds of Digitaria ciliaris, Setaria viridis, Echinochloa crus-galli var. crus-galli, Avena fatua, Alopecurus myosuroides, Lolium multiflorum Lam., Apera spica-venti., Abutilon theophrasti, Amaranthus retroflexus, Chenopodium album, Stellaria media, Galium spurium, Veronica persica, Zea mays, Glycine max, Oryza sativa, Triticum aestivum, Beta vulgaris ssp. vulgaris, and Brassica campestris L. was sowed in a spot-like manner and was covered with the soil of about 1.5 cm thick. Thereafter, the plants were grown in the greenhouse of 25° C. to 30° C. After the plants were grown for 14 days, the emulsion agent containing the compound of the present invention prepared in accordance with Formulation Example 2 was diluted with water so as to be a predetermined herbicide amount and the diluted compound was uniformly applied to a stem and leaf part with a small-size spray. Three weeks after the herbicide application, effects on each plant were investigated in accordance with the criteria of Test Example 1. A: Echinochloa oryzicola Vasing., B: Scirpus juncoides, C: Monochoria vaginalis, D: Leptochloa chinensis, E: Cyperus difformis, F: Digitaria ciliaris, G: Setaria viridis, H: Echinochloa crus-galli var. crus-galli, I: Avena fatua, J: Alopecurus myosuroides, K: Lolium multiflorum Lam., L: Apera spica-venti., M: Abutilon theophrasti, N: Amaranthus retroflexus, O: Chenopodium album, P: Stellaria media, Q: Galium spurium, R: Veronica persica, a: transplanted Oryza sativa, b: directly sowed Oryza sativa, c: Zea mays, d: Glycine max, e: Triticum aestivum, f: Beta vulgaris ssp. vulgaris, and g: Brassica campestris L. The application herbicide amount (g/ha) means an amount that a concentration is adjusted so that, when an application amount is converted into per hectare (1 ha), the herbicide is applied by the number of grams (g) of the described value.

Brassica campestris L. = test: as above; settings: for effect on crop, g (Brassica campestris L.): application to foliage, 320 g/ha
Description: as §1

Triticum aestivum = test: as above; settings: for effect on crop, e (Triticum aestivum): application to foliage, 320 g/ha
Description: as §1

[1] = system: Beta vulgaris ssp. vulgaris; test: as above; settings: for effect on crop, f (Beta vulgaris ssp. vulgaris): application to foliage, 320 g/ha
Description: as §1

[2] = system: directly sowed Oryza sativa; test: as above; settings: for effect on crop, d (directly sowed Oryza sativa): application to foliage, 320 g/ha
Description: as §1

Zea mays = test: as above; settings: for effect on crop, b (Zea mays): application to foliage, 320 g/ha
Description: as §1

Abutilon theophrasti = test: Test Example 4: herbicidal effect by application to foliage (diluvial soil, plastic box); settings: for herbicidal effect, M (Abutilon theophrasti): application to foliage, 320 g/ha
Description: as §1

Amaranthus retroflexus = test: as above; settings: application to foliage, 320 g/ha
Description: as §1

Avena fatua = test: as above; settings: for herbicidal effect, I (Avena fatua): application to foliage, 320 g/ha
Description: as §1

Setaria viridis = test: as above; settings: for herbicidal effect, G (Setaria viridis): application to foliage, 320 g/ha
Description: as §1

Digitaria ciliaris = test: as above; settings: for herbicidal effect, F (Digitaria ciliaris): application to foliage, 320 g/ha
Description: as §1

Apera spica-venti. = test: as above; settings: for herbicidal effect, L (Apera spica-venti.): application to foliage, 320 g/ha
Description: as §1

Chenopodium album = test: as above; settings: for herbicidal effect, O (Chenopodium album): application to foliage, 320 g/ha
Description: as §1

[3] = system: Echinochloa crus-galli var. crus-galli; test: as above; settings: for herbicidal effect, H (Echinochloa crus-galli var. crus-galli): application to foliage, 320 g/ha
Description: as §1

Veronica persica = test: as above; settings: for herbicidal effect, R (Veronica persica): application to foliage, 320 g/ha
Description: as §1

Galium spurium = test: as above; settings: for herbicidal effect, Q (Galium spurium): application to foliage, 320 g/ha
Description: as §1

Alopecurus myosuroides = test: as above; settings: for herbicidal effect, J (Alopecurus myosuroides): application to foliage, 320 g/ha
Description: as §1

Lolium multiflorum Lam. = test: as above; settings: for herbicidal effect, K (Lolium multiflorum Lam.): application to foliage, 320 g/ha
Description: as §1

Stellaria media = test: as above; settings: application to foliage, 320 g/ha
Description: as §1

[4] = system: directly sowed Oryza sativa; test: Test Example 3: effect on crop by application to foliage (Wagner pot, water depth 0.1-0.5 cm); settings: Nineteenth Table; application to foliage; application herbicide amount 224 g/ha
Description: (§2) 5 Herbicidal ratio of 90% or more (almost completely withered) 4 Herbicidal ratio of 70% or more and less than 90% 3 Herbicidal ratio of 40% or more and less than 70% 2 Herbicidal ratio of 20% or more and less than 40% 1 Herbicidal ratio of 5% or more and less than 20% 0 Herbicidal ratio of 5% or less (almost no effect) [Test Example 3] Herbicidal Effect Test by Application to Foliage After alluvial soil was placed into 1/10000 are of Wagner pot, water was poured and mixed to form a condition having a water depth of 0.1 cm to 0.5 cm. Seeds of Echinochloa crus-galli var. crus-galli, Leptochloa chinensis, Cyperus difformis, and Oryza sativa were sowed and the pot was placed in the greenhouse of 25° C. to 30° C. to grow the plants. After the plants were grown for 14 days, the emulsion agent containing the compound of the present invention prepared in accordance with Formulation Example 2 was diluted with water so as to be a predetermined herbicide amount and the diluted compound was uniformly applied to a stem and leaf part with a small-size spray. Three weeks after the herbicide application, effects on each plant were investigated in accordance with the criteria of Test Example 1. A: Echinochloa oryzicola Vasing., B: Scirpus juncoides, C: Monochoria vaginalis, D: Leptochloa chinensis, E: Cyperus difformis, F: Digitaria ciliaris, G: Setaria viridis, H: Echinochloa crus-galli var. crus-galli, I: Avena fatua, J: Alopecurus myosuroides, K: Lolium multiflorum Lam., L: Apera spica-venti., M: Abutilon theophrasti, N: Amaranthus retroflexus, O: Chenopodium album, P: Stellaria media, Q: Galium spurium, R: Veronica persica, a: transplanted Oryza sativa, b: directly sowed Oryza sativa, c: Zea mays, d: Glycine max, e: Triticum aestivum, f: Beta vulgaris ssp. vulgaris, and g: Brassica campestris L. The application herbicide amount (g/ha) means an amount that a concentration is adjusted so that, when an application amount is converted into per hectare (1 ha), the herbicide is applied by the number of grams (g) of the described value.

Leptochloa chinensis = test: Test Example 3: herbicidal effect by application to foliage (Wagner pot, water depth 0.1-0.5 cm); settings: Nineteenth Table; application to foliage; application herbicide amount 224 g/ha
Description: as §2

[5] = system: Echinochloa crus-galli var. crus-galli; test: as above; settings: Nineteenth Table; application to foliage; application herbicide amount 224 g/ha
Description: as §2

Cyperus difformis = test: as above; settings: Nineteenth Table; application to foliage; application herbicide amount 224 g/ha
Description: as §2

[6] = Application herbicide amount 224 g/ha, effect on crop
[7] = Application herbicide amount 224 g/ha

Compound: Cc1nnc(NC(=O)c2ccc(C(F)(F)F)n3c(=O)n(C(C)C)nc23)o1 [6-005]
- effect on crop, c (Glycine max) (Glycine max): 0 (Herbicidal ratio of 5% or less (almost no effect))
- effect on crop, g (Brassica campestris L.) (Brassica campestris L.): 0 (Herbicidal ratio of 5% or less (almost no effect))
- effect on crop, e (Triticum aestivum) (Triticum aestivum): 0 (Herbicidal ratio of 5% or less (almost no effect))
- effect on crop, f (Beta vulgaris ssp. vulgaris) [1]: 1 (Herbicidal ratio of 5% or more and less than 20%)
- effect on crop, d (directly sowed Oryza sativa) [2]: 0 (Herbicidal ratio of 5% or less (almost no effect))
- effect on crop, b (Zea mays) (Zea mays): 0 (Herbicidal ratio of 5% or less (almost no effect))
- herbicidal effect, M (Abutilon theophrasti) (Abutilon theophrasti): 4 (Herbicidal ratio of 70% or more and less than 90%)
- herbicidal effect, N (Amaranthus retroflexus) (Amaranthus retroflexus): 3 (Herbicidal ratio of 40% or more and less than 70%)
- herbicidal effect, I (Avena fatua) (Avena fatua): 0 (Herbicidal ratio of 5% or less (almost no effect))
- herbicidal effect, G (Setaria viridis) (Setaria viridis): 1 (Herbicidal ratio of 5% or more and less than 20%)
- herbicidal effect, F (Digitaria ciliaris) (Digitaria ciliaris): 3 (Herbicidal ratio of 40% or more and less than 70%)
- herbicidal effect, L (Apera spica-venti.) (Apera spica-venti.): 1 (Herbicidal ratio of 5% or more and less than 20%)
- herbicidal effect, O (Chenopodium album) (Chenopodium album): 3 (Herbicidal ratio of 40% or more and less than 70%)
- herbicidal effect, H (Echinochloa crus-galli var. crus-galli) [3]: 3 (Herbicidal ratio of 40% or more and less than 70%)
- herbicidal effect, R (Veronica persica) (Veronica persica): 1 (Herbicidal ratio of 5% or more and less than 20%)
- herbicidal effect, Q (Galium spurium) (Galium spurium): 1 (Herbicidal ratio of 5% or more and less than 20%)
- herbicidal effect, J (Alopecurus myosuroides) (Alopecurus myosuroides): 1 (Herbicidal ratio of 5% or more and less than 20%)
- herbicidal effect, K (Lolium multiflorum Lam.) (Lolium multiflorum Lam.): 1 (Herbicidal ratio of 5% or more and less than 20%)
- herbicidal effect, P (Stellaria media) (Stellaria media): 1 (Herbicidal ratio of 5% or more and less than 20%)

Compound: CCn1nc2c(C(=O)Nc3nonc3C)ccc(C(F)(F)F)n2c1=O [6-008]
- effect on crop, c (Glycine max) (Glycine max): 0 (Herbicidal ratio of 5% or less (almost no effect))
- effect on crop, g (Brassica campestris L.) (Brassica campestris L.): 0 (Herbicidal ratio of 5% or less (almost no effect))
- effect on crop, e (Triticum aestivum) (Triticum aestivum): 0 (Herbicidal ratio of 5% or less (almost no effect))
- effect on crop, f (Beta vulgaris ssp. vulgaris) [1]: 1 (Herbicidal ratio of 5% or more and less than 20%)
- effect on crop, d (directly sowed Oryza sativa) [2]: 1 (Herbicidal ratio of 5% or more and less than 20%)
- effect on crop, b (Zea mays) (Zea mays): 0 (Herbicidal ratio of 5% or less (almost no effect))
- herbicidal effect, M (Abutilon theophrasti) (Abutilon theophrasti): 1 (Herbicidal ratio of 5% or more and less than 20%)
- herbicidal effect, N (Amaranthus retroflexus) (Amaranthus retroflexus): 0 (Herbicidal ratio of 5% or less (almost no effect))
- herbicidal effect, I (Avena fatua) (Avena fatua): 0 (Herbicidal ratio of 5% or less (almost no effect))
- herbicidal effect, G (Setaria viridis) (Setaria viridis): 0 (Herbicidal ratio of 5% or less (almost no effect))
- herbicidal effect, F (Digitaria ciliaris) (Digitaria ciliaris): 0 (Herbicidal ratio of 5% or less (almost no effect))
- herbicidal effect, L (Apera spica-venti.) (Apera spica-venti.): 0 (Herbicidal ratio of 5% or less (almost no effect))
- herbicidal effect, O (Chenopodium album) (Chenopodium album): 3 (Herbicidal ratio of 40% or more and less than 70%)
- herbicidal effect, H (Echinochloa crus-galli var. crus-galli) [3]: 0 (Herbicidal ratio of 5% or less (almost no effect))
- herbicidal effect, R (Veronica persica) (Veronica persica): 0 (Herbicidal ratio of 5% or less (almost no effect))
- herbicidal effect, Q (Galium spurium) (Galium spurium): 0 (Herbicidal ratio of 5% or less (almost no effect))
- herbicidal effect, J (Alopecurus myosuroides) (Alopecurus myosuroides): 0 (Herbicidal ratio of 5% or less (almost no effect))
- herbicidal effect, K (Lolium multiflorum Lam.) (Lolium multiflorum Lam.): 0 (Herbicidal ratio of 5% or less (almost no effect))
- herbicidal effect, P (Stellaria media) (Stellaria media): 1 (Herbicidal ratio of 5% or more and less than 20%)

Compound: Cc1nnc(NC(=O)c2c(C)cc(C(F)(F)F)n3c(C(C)C)nnc23)o1 [1-089]
- b (effect on crop grade) [4]: 0 (Herbicidal ratio of 5% or less (almost no effect))
- D (herbicidal effect grade) (Leptochloa chinensis): 3 (Herbicidal ratio of 40% or more and less than 70%)
- H (herbicidal effect grade) [5]: 3 (Herbicidal ratio of 40% or more and less than 70%)
- E (herbicidal effect grade) (Cyperus difformis): 2 (Herbicidal ratio of 20% or more and less than 40%)
- c (Glycine max; [6]): 0 (Herbicidal ratio of 5% or less (almost no effect))
- g (Brassica campestris L.; [6]): 1 (Herbicidal ratio of 5% or more and less than 20%)
- e (Triticum aestivum; [6]): 0 (Herbicidal ratio of 5% or less (almost no effect))
- f [1, 6]: 3 (Herbicidal ratio of 40% or more and less than 70%)
- d [2, 6]: 1 (Herbicidal ratio of 5% or more and less than 20%)
- b (Zea mays; [6]): 0 (Herbicidal ratio of 5% or less (almost no effect))
- M (Abutilon theophrasti; [7]): 2 (Herbicidal ratio of 20% or more and less than 40%)
- I (Avena fatua; [7]): 2 (Herbicidal ratio of 20% or more and less than 40%)
- G (Setaria viridis; [7]): 0 (Herbicidal ratio of 5% or less (almost no effect))
- F (Digitaria ciliaris; [7]): 1 (Herbicidal ratio of 5% or more and less than 20%)
- L (Apera spica-venti.; [7]): 0 (Herbicidal ratio of 5% or less (almost no effect))
- O (Chenopodium album; [7]): 4 (Herbicidal ratio of 70% or more and less than 90%)
- H [3, 7]: 3 (Herbicidal ratio of 40% or more and less than 70%)
- R (Veronica persica; [7]): 3 (Herbicidal ratio of 40% or more and less than 70%)
- Q (Galium spurium; [7]): 0 (Herbicidal ratio of 5% or less (almost no effect))
- J (Alopecurus myosuroides; [7]): 0 (Herbicidal ratio of 5% or less (almost no effect))
- K (Lolium multiflorum Lam.; [7]): 0 (Herbicidal ratio of 5% or less (almost no effect))

Source: patent US9708314B2, “Heterocyclic amide compound” (NISSAN CHEMICAL INDUSTRIES, LTD., priority 2013, dated 2017)
